Where a chain is given by its changes, count along the chain named. Several values for one entry are separate records, joined by “and”; a condition that tells them apart may be missing. Equal values may be shown once. Read-outs that look alike come from different tables or passages of the source. Some results are limits rather than exact numbers.

Experiment [1] concerns the target T1, wild-type Androgen Receptor (AR-wt) (Homo sapiens, UniProt P10275).
T1 construct: expressed in transfected cells; host or cells: LNCaP (LNCaP AR (cs))
T1 sequence (P10275 1-920): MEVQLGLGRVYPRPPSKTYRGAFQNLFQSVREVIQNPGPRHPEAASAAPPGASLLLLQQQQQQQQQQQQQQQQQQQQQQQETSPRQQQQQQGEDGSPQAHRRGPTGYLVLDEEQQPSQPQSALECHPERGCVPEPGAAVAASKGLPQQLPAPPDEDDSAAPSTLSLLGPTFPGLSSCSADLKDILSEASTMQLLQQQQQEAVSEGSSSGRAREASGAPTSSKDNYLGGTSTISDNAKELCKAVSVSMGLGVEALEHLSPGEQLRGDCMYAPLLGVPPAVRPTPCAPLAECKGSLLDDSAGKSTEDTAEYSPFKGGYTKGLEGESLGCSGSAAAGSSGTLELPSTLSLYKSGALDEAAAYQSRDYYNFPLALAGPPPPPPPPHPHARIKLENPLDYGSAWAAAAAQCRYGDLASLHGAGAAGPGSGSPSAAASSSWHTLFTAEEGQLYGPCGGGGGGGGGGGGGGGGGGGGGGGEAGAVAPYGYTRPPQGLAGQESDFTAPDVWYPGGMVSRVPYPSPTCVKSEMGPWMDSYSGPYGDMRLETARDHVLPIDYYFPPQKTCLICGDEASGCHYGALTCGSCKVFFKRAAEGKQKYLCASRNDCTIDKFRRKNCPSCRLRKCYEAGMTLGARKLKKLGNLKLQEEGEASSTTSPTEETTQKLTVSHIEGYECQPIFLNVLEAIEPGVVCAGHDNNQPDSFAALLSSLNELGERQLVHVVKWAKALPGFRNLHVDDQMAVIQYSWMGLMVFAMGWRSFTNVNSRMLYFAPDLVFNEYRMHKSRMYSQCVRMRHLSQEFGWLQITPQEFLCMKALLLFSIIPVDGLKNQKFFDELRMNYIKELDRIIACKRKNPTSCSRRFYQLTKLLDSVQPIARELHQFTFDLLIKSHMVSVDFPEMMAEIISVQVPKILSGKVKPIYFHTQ
As to the kind of experiment: LNCaP-AR-wt AG reporter assay (ARE firefly luciferase, agonist mode). The settings on record: for Emax: read-out: LNCaP-AR-wt AG MAX % Stim. It counts as cell-based. In outline:
(§1)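 Cells: stable LNCaP pools, AR-wt or AR-F876L, in charcoal-stripped serum. Agonist challenge for antagonist mode was 400 pM (WT) and 600 pM (F876L). Luminescence was measured after 20-24 h incubation.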

The target in experiment [2] is T2, F876L mutant Androgen Receptor (AR-F876L) (Homo sapiens, UniProt P10275, F877L).
T2 construct: expressed in transfected cells; host or cells: LNCaP (LNCaP F876L)
T2 sequence (P10275 1-920 F877L): T1 sequence (P10275 1-920) with F877L
In words: LNCaP-AR-F876L ANT reporter assay (ARE firefly luciferase, antagonist mode). The experiment is classed as cell-based. The settings on record: for Emax: read-out: LNCaP-AR-F876L ANT MAX % Inh; for IC50: read-out: LNCaP-AR-F876L ANT pIC50 (converted). In outline:
as §1
Background: Reporter assays use an easily measured gene product as a stand-in for the process of interest.

Experiment [3] has as its system androgen dependent signaling. In words: Hershberger assay. The experiment is classed as in vivo, rat. The protocol:
The effect of AR antagonists on androgen dependent signaling in vivo was assessed using the Hershberger assay. In this assay, peripubertal castrated male Sprague-Dawley rats were administered AR antagonists described herein in the presence of testosterone (0.4 mg/kg testosterone propionate) and the weights of androgen dependent organs measured. Dosing was continued for 10 days and measurements taken 24 h after the last dose. The extent of antagonism of AR and consequent inhibition of organ growth was evaluated by comparison to the castration control. Compounds of Formula (I) were dosed orally QD and an endpoint assessment made by change in weight of 5 androgen sensitive organs (ASO): Paired Cowper's Glands (CG), Seminal Vesicles with Fluids and Coagulating Glands (SVCG), Glans Penis (GP), Ventral Prostate (VP) and Levator Ani-Bulbocavernosus Complex (LABC)). According to assay guidelines, statistically significant suppression of ASO is required in 2 of 5 organs for a compound to be classified as an anti-androgen (analysis was performed by t-test/Mann-Whitney).
Compounds defined herein were administered at the indicated dose (mg/kg) and flutamide (FT), positive control, at 3 mg/kg. All compounds were co-administered with testosterone propionate (TP, 0.4 mg/kg) which was also administered alone, untreated control, (castrated only rats served as the control for complete androgen blockade). A statistically significant change in ASO achieved in at least 2 of 5 organs was indicative of an active compound.

Experiment [4] deals with T2, F876L mutant Androgen Receptor (AR-F876L). In words: LNCaP-AR-F876L AG reporter assay (ARE firefly luciferase, agonist mode). It counts as cell-based. The settings on record: for Emax: read-out: LNCaP-AR-F876L AG MAX % Stim. The method in brief:
as §1

Experiment [5] deals with T1, wild-type Androgen Receptor (AR-wt). As to the kind of experiment: LNCaP-AR-wt ANT reporter assay (ARE firefly luciferase, antagonist mode). It counts as cell-based. Conditions: for IC50: antagonist mode, 400 pM R-1881 challenge, −Log10(IC50 [Molar]), read-out: LNCaP-AR-wt ANT pIC50 (converted); for Emax: read-out: LNCaP-AR-wt ANT MAX % Inh. In outline:
as §1

The target of the next experiment is T3, F876L-VP16 (Homo sapiens, UniProt P10275, F877L).
T3 construct: VP16 (fusion partner); expressed in transfected cells; host or cells: HepG2
T3 sequence (P10275 1-920 F877L): T1 sequence (P10275 1-920) with F877L
In words: AR-VP16 DNA binding assay, HepG2. The settings on record: HepG2, antagonist mode, 1 nM R1881, 48 hours. The experiment is classed as cell-based. The procedure: (§2) HepG2 cells were maintained in EMEM supplemented with 10% FBS. One day before transfection, the media was changed to EMEM with 10% CSS. […] Cells were then trypsinized, counted and resuspended at 500,000 cells/mL. For agonist mode, the compounds were serially diluted and 50 μL of the compound was added per well. 50 μL of the cells were added to each well and incubated for 48 hours. For antagonist mode, a final concentration of 90 pM (VP16 AR) or 1 nM (VP16 F876L) R1881 was added to the plate and incubated for 48 hours. The plates were then assayed using SteadyGlo and read on the Envision. Percent Stimulation and Inhibition were determined and analyzed using GraphPad Prism.

A further experiment addresses T4, AR-VP16 (Homo sapiens, UniProt P10275).
T4 sequence (P10275 560-920 limits assumed): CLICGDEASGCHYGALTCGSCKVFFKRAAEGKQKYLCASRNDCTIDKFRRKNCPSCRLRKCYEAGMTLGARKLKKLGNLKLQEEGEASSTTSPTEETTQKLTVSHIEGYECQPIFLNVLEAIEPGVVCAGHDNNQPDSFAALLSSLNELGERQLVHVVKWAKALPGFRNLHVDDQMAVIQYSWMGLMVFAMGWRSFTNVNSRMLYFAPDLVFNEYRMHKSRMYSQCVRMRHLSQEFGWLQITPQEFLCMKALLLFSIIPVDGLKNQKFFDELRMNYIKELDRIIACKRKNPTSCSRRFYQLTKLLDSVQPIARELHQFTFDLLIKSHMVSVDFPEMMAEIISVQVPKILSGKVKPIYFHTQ
In words: AR-VP16 DNA binding assay, HepG2. The experiment is classed as cell-based. Conditions: HepG2, antagonist mode, 90 pM R1881, 48 hours; read-out: IC50 VP16 WT. The procedure:
as §2

Where [6] appears, read: agonist mode, −Log10(EC50 [Molar]), read-out: LNCaP-AR-wt AG pEC50 (converted).
Setting [7] is: maximum % stimulation (agonist response) over tested concentration range.
The mark [8] stands for this setting: maximum % inhibition of R1881 control response over tested concentration range.
[9] abbreviates: agonist mode, −Log10(EC50 [Molar]), read-out: LNCaP-AR-F876L AG pEC50 (converted).
Where [10] appears, read: 3 mg/kg orally QD 10 days with testosterone propionate 0.4 mg/kg, castrated rats, mean ± SD (n=6).

Consider `CN1CCN(CCCc2ccc(N3C(=S)N(c4cnc(C#N)c(C(F)(F)F)c4)C(=O)C34CCC4)cc2)CC1` [Cpd 43, 5-[8-[4-[3-(4-methylpiperazin-1-yl)propyl]phenyl]-5-oxo-7-thioxo-6,8-diazaspiro[3.4]octan-6-yl]-3-(trifluoromethyl)pyridine-2-carbonitrile], for which the EC50 in experiment [1] and in experiment [4] was above 15100 nM in each case. For the same compound, the Emax in experiment [1] worked out at 0.7%; in experiment [2], 98.9%; in experiment [4] it was 0.4%; in experiment [5], 97.3%. Also, the IC50 in experiment [2] is 245 nM; in experiment [5], 501 nM. Further, the “reduction in ASO versus TP control” value in experiment [3] (all 5 organs, p≦0.05) is recorded as “significant reduction in ASO”.

In the case of `Cc1cc(N2C(=O)C3(CCC3)N(c3ccc(OC4CCN(CCO)CC4)cc3)C2=S)cnc1C#N` [Cpd 60, 5-[8-[4-[[1-(2-hydroxyethyl)-4-piperidyl]oxy]phenyl]-5-oxo-7-thioxo-6,8-diazaspiro[3.4]octan-6-yl]-3-methyl-pyridine-2-carbonitrile], the EC50 in experiment [1] (setting [6]) and in experiment [4] (setting [9]) was above 15100 nM each time. The Emax in experiment [1] (setting [7]) was determined as 1.1%; in experiment [2] (setting [8]), 99.3%; in experiment [4] (setting [7]) it was 0.7%; in experiment [5] (setting [8]) it was 98.7%. Also, the IC50 is 525 nM in experiment [2], 933 nM in experiment [5], 746 nM on F876L-VP16 and 2050 nM on AR-VP16.

As to `N#Cc1ccc(N2C(=S)N(c3cnc(C#N)c(C(F)(F)F)c3)C(=O)C23CCC3)cc1` [Cpd 120, 5-[8-(4-cyanophenyl)-5-oxo-7-thioxo-6,8-diazaspiro[3.4]octan-6-yl]-3-(trifluoromethyl)pyridine-2-carbonitrile], the EC50 in experiment [1] (setting [6]) and in experiment [4] (setting [9]) was above 15100 nM in each case. Further, the Emax in experiment [1] (setting [7]) stood at 1.2%; in experiment [2] (setting [8]) it was 98.8%; in experiment [4] (setting [7]) it was 3.9%; in experiment [5] (setting [8]), 100%. The IC50 in experiment [2] is 224 nM; in experiment [5], 363 nM.

On to `CN1CCN(CCNC(=O)c2ccc(N3C(=S)N(c4cnc(C#N)c(C(F)(F)F)c4)C(=O)C34CCC4)cc2F)CC1` [Cpd 121, 4-[6-[6-cyano-5-(trifluoromethyl)-3-pyridyl]-5-oxo-7-thioxo-6,8-diazaspiro[3.4]octan-8-yl]-2-fluoro-N-[2-(4-methylpiperazin-1-yl)ethyl]benzamide], for which the EC50 in experiment [1] (setting [6]) and in experiment [4] (setting [9]) was above 15100 nM in each case. Also, the Emax in experiment [1] (setting [7]) worked out at 1.2%; in experiment [2] (setting [8]), 98.7%; in experiment [4] (setting [7]), 3%; in experiment [5] (setting [8]), 93.6%. Besides, the IC50 is 575 nM in experiment [2] and 2750 nM in experiment [5].

Regarding `CS(=O)(=O)N1CCC(Oc2ccc(N3C(=S)N(c4cnc(C#N)c(C(F)(F)F)c4)C(=O)C34CCC4)cc2)CC1` [Cpd 122, 5-[8-[4-[(1-methylsulfonyl-4-piperidyl)oxy]phenyl]-5-oxo-7-thioxo-6,8-diazaspiro[3.4]octan-6-yl]-3-(trifluoromethyl)pyridine-2-carbonitrile], the EC50 in experiment [1] (setting [6]) and in experiment [4] (setting [9]) was above 15100 nM in each case. Further, the Emax amounted to 2.2% in experiment [1] (setting [7]), 90.5% in experiment [2] (setting [8]), 6.2% in experiment [4] (setting [7]) and 99.7% in experiment [5] (setting [8]). Further, the IC50 is 437 nM in experiment [2] and 302 nM in experiment [5].

On to `CC(C)C(=O)Nc1ccc([N+](=O)[O-])c(C(F)(F)F)c1` [Flutamide, flutamide, reference compound], for which, in experiment [3] (setting [10]), the “ASO Organ Growth (% of TP control) SVCG” value is 22.5 ± 22.9 % of TP control and 16.6 ± 16.3 % of TP control; the “ASO Organ Growth (% of TP control) VP” value is 31.1 ± 29.2 % of TP control and 24.4 ± 35.5 % of TP control.

For the origin of these results see patent US20180008587A1, “THIOHYDANTOIN ANDROGEN RECEPTOR ANTAGONISTS FOR THE TREATMENT OF CANCER” (Jaressen Pharmaceutica NV, priority 2016, published 2018).
